Laboratory results published in paper PMC7827085 (Pharmaceutics, 2021).
Where two headings read alike, the source gives them in different places.

Legend:
ABCB1/MDR1/Pgp [1] = molecular target: T1, ABCB1/MDR1/Pgp (Homo sapiens, UniProt P08183); test: in vitro; conditions: read-out: Estimated Transporter Inhibition IC50, ABCB1 cellular assay; Calcein-AM extrusion, PLB-985/ABCB1 cells; relative to full inhibition by 0.25 µM tariquidar; '-' = no significant inhibition
Experimental: (§1) For the ABC transporter assays, we used both cell-based and membrane-based functional assays. […] The respective transport activities were assayed by measuring the cellular fluorescence of the respective transported substrates Phengreen (ABCG2) and Calcein (ABCB1 and ABCC1).
The cells were kept on ice until the flow cytometry measurements. All experiments were performed in triplicate and in at least three biological parallels.
(§2) The cells were kept on ice until the flow cytometry measurements. All experiments were performed in triplicate and in at least three biological parallels. […] The PhenGreen (PG) or Calcein signal was detected in the BL1 channel (emission filter: 530/30 nm). Analysis of the data was carried out by the Attune Nxt Cytometer Software v3.1.2 (Thermo Fischer Scientific, Waltham, MA, USA). The inhibition of transporter activity was calculated by comparing the fluorescence in the presence of the test compound to that in the presence of a specific inhibitor providing maximum inhibition. […] Half-maximum inhibition (IC50) values were calculated by using the Origin2019 software (9.6.5.169, OriginLab Corporation, Northampton, MA, USA). […] In these experiments, we measured Hoechst dye extrusion in HeLa cells stably expressing eGFP and the ABCG2 variants driven by the same promoter—the transgenic cells generated by the Sleeping Beauty transposon system. […] For details, see Zámbó et al.). […] The maximum inhibition was defined for each variant as the fluorescence difference of the samples incubated with and without Ko143, respectively. […] Data analysis was performed using the Attune Nxt Cytometer Software v3.1.2. Two samples per condition and three biological replicates were examined in each experiment.
ABCB1 is a high-affinity active efflux transporter of the viability dye Calcein-AM (CaAM). […] Here, we applied this widely used cellular assay (see https://www.solvobiotech.com/services/categories/dye-efflux-assays) to characterize drug interactions of the applied compounds in intact PLB-985 cells, expressing high levels of the ABCB1 protein.

ABCG2/BCRP [2] = molecular target: T2, ABCG2/BCRP (Homo sapiens, UniProt Q9UNQ0); test: in vitro; conditions: read-out: Estimated Transporter Inhibition IC50, ABCG2 cellular assay; PhenGreen-DA extrusion, PLB-985/ABCG2 cells; relative to 2.5 µM Ko143; '-' = no inhibition
T2 sequence (Q9UNQ0 1-655): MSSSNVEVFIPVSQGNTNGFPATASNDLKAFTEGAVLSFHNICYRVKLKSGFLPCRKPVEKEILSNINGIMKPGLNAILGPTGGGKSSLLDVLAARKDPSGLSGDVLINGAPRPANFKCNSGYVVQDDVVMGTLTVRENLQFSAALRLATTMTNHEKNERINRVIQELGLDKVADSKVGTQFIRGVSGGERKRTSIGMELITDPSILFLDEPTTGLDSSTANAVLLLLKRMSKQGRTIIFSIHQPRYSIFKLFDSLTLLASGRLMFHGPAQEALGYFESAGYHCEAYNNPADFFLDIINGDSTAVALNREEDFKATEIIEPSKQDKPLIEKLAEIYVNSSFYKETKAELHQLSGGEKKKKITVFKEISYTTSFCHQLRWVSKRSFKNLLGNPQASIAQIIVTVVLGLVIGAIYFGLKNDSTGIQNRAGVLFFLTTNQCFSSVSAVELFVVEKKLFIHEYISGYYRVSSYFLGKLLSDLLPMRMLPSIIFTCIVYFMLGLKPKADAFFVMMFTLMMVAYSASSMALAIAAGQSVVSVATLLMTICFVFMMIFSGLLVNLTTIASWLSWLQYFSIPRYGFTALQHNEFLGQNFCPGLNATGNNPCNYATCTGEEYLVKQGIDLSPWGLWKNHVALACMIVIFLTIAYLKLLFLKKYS
Experimental: as §1, §2
Here, we used both PhenGreen-SK diacetate and Hst dye for these measurements. The PhenGreen (PG) assay is a recently patented method applied for ensuring an efficient ABCG2 transport measurement, as the non-fluorescent PhenGreen diacetate (PG-DA) is actively extruded by ABCG2 and the cellular fluorescence is correlated with ABCG2 transport activity. Therefore, we applied this assay to characterize the test drug interactions in intact PLB-985 cells expressing high levels of the ABCG2 protein. […] ABCG2 inhibition by the test compounds was estimated by their relative (%) inhibition compared to full inhibition by Ko143.

ABCG2/BCRP [3] = molecular target: T2, ABCG2/BCRP; test: in vitro; conditions: read-out: Estimated Transporter Inhibition IC50, ABCG2 vesicular assay; ATP-dependent lucifer yellow uptake, HEK-293/ABCG2 vesicles; relative to 1 µM Ko143; '-' = no inhibition
Experimental: These were employed at 37 °C for 10 min (ABCG2), 1 min (ABCB1), or 3 min (ABCC1), with or without 4 mM Mg-ATP, in a 50 μL final volume. The known reference inhibitors of the transporters (1 µM Ko143 for ABCG2, 1 µM Valspodar for ABCB1, and 200 µM Benzbromarone for ABCC1) served as controls. Each test compound was dissolved in DMSO and a 1 µL volume was added to the samples. After incubation, the samples were filtered and washed, and the substrates in the vesicles were dissolved in 10% SDS and transferred onto another plate. After the addition of a stabilizer, the fluorescence was measured in plate readers (Victor X3 and Enspire Perkin-Elmer, Waltham, MA, USA), while the activity of the radiolabeled substrate was measured by liquid scintillation counting (Perkin Elmer MicroBeta2 liquid scintillation counter, Perkin Elmer, Waltham, MA, USA). ABC transporter-related vesicular transport was calculated by subtracting uptake measured in the presence of Mg-AMP from the values measured in the presence of Mg-ATP.
The effects of the test compounds on ABCG2 activity were also measured in a vesicular transport assay by using inverted membrane vesicles prepared from HEK-293 cells expressing high levels of the ABCG2 transporter.

ABCB1/MDR1/Pgp [4] = molecular target: T1, ABCB1/MDR1/Pgp; conditions: read-out: Estimated Transporter Inhibition IC50, ABCB1 vesicular assay; ATP-dependent NMQ uptake, HEK-293/ABCB1 inverted membrane vesicles; '-' = no inhibition
OATP2B1 [5] = molecular target: T3, OATP2B1 (Homo sapiens, UniProt O94956); conditions: read-out: Estimated Transporter Inhibition IC50, OATP2B1 cellular assay; 20 µM pyranine uptake, 15 min, pH 5.5, A431-OATP2B1 cells; '-' = no interaction
T3 sequence (O94956 1-709): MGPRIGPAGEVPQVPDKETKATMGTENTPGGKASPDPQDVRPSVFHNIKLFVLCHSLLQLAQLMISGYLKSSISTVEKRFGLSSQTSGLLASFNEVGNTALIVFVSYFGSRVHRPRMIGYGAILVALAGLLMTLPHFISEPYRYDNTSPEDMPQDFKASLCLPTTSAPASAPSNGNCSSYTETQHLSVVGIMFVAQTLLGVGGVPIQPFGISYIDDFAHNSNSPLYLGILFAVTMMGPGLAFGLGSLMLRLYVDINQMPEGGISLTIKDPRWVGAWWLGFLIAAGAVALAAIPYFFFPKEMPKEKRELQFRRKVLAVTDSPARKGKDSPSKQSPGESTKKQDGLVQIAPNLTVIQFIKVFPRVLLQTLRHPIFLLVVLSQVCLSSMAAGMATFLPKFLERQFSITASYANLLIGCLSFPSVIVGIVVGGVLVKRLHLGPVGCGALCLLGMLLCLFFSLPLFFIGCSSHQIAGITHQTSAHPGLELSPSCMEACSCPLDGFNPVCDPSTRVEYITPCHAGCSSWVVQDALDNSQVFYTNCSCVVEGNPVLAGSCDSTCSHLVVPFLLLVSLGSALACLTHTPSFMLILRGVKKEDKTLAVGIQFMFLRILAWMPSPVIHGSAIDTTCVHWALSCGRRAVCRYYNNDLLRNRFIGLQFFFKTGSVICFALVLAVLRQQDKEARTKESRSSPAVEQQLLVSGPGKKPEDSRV

OATP2B1 [6] = system: OATP2B1; parameters: method as in PMID 22541068; conditions: 20 µM ivermectin, different test substrate; cited from earlier work
SARS-CoV-2 = conditions: cited from earlier work

T1 sequence (P08183 whole entry): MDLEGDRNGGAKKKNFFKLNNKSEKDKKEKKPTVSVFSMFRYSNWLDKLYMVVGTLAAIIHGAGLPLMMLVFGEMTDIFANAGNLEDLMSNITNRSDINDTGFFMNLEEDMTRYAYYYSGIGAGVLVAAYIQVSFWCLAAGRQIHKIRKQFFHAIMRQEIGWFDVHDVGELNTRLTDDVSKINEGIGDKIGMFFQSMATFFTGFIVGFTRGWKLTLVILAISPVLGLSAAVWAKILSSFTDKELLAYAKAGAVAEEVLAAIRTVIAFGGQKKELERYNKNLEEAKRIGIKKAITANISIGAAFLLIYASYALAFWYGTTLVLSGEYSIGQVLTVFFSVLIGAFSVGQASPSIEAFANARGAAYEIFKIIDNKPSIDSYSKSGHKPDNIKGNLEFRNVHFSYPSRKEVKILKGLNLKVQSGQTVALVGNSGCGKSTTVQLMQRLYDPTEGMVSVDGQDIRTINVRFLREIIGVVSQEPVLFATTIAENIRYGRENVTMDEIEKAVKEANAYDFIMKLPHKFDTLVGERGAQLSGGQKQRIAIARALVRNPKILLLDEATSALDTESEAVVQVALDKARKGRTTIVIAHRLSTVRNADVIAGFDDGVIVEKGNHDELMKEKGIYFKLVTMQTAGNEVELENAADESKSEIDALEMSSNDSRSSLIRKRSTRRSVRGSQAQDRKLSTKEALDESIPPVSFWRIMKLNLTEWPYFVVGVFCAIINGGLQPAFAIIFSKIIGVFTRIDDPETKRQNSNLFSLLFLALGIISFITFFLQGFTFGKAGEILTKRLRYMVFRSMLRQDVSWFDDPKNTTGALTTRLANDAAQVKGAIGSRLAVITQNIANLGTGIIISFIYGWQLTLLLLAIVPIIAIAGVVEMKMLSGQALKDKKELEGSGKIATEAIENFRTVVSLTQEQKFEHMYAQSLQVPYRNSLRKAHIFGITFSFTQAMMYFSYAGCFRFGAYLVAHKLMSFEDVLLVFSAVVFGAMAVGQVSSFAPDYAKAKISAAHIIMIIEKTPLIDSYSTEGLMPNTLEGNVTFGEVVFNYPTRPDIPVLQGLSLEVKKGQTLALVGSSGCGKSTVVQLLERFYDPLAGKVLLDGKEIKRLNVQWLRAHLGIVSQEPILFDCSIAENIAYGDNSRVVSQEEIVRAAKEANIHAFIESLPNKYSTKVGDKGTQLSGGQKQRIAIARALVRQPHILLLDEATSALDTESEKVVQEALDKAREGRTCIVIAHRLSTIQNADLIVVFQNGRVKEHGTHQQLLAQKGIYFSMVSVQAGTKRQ

ivermectin
IC50 (ABCB1/MDR1/Pgp [1]): 600 nM | IC50 (ABCG2/BCRP [2]): 3100 nM | IC50 (ABCG2/BCRP [3]): 1100 nM | IC50 (ABCB1/MDR1/Pgp [4]): 300 nM | IC50 (OATP2B1 [5]): 8600 nM | OATP2B1 inhibition found by Karlgren et al. (OATP2B1 [6]): 39% | Plasma concentrations required to reach an in vitro antiviral efficacy (SARS-CoV-2): 2 to 10 µM
